Test results from patent publication US20110160055A1, “Imidazole and Triazole Compounds as Fungicides” (BASF SE, priority 2008, published 2011).

Assays:
Phakopsora pachyrhizi [1] = experiment: Example G1: curative activity against soybean rust, greenhouse, sprayed two days after the 24 h incubation; format: in vivo; conditions: potted soybean seedlings, 150 ppm aqueous preparation sprayed two days after incubation, rated after a further 10 days; untreated plants 90% infected
Procedure: (§1) Subsequently, it was made up to 100 ml with water. This stock solution was diluted with the solvent/emulsifier/water mixture described to the active compound concentration indicated below. Alternatively to this, the active compounds were used as a commercially available ready-to-use solution and diluted with water to the active compound concentration indicated. Curative activity against soybean rust caused by Phakopsora pachyrhizi Leaves of potted soybean seedlings were inoculated with a spore suspension of soybean rust (Phakpsora pachyrhizi). […] During this time, the spores germinated and the germ tubes penetrated into the leaf tissue. Infected plants were then cultivated further in a greenhouse at temperatures between 23 and 27° C. and 60 to 80% relative atmospheric humidity. After two days, the plants were sprayed to run off point with the active compound solution described above at the active compound concentration stated below. After the spray coating had dried on, the test plants were cultivated in a greenhouse at temperatures between 23 and 27° C. and 60 to 80% relative atmospheric humidity for a further 10 days. The extent of the rust fungus development on the leaves was then determined visually in % infection.

Phakopsora pachyrhizi [2] = experiment: Example G2: curative activity against soybean rust, greenhouse, sprayed directly after the 24 h incubation; format: in vivo; conditions: potted soybean seedlings, 150 ppm aqueous preparation sprayed after 24 h incubation, rated after a further 14 days; untreated plants 90% infected
Procedure: as §1, with “then” for “then cultivated further in a greenhouse at temperatures between 23 and 27° C. and 60 to 80% relative atmospheric humidity. After two days, the plants were”, “further 14” for “further 10”

CC(COc1ccccc1Cl)=C(C)CC(C(O)C(C)(C)C)n1cncn1 (centres unmarked) [I.A6b]
infection (extent of rust fungus development on the leaves, visual) (Phakopsora pachyrhizi [1]): 0%

CC(COc1cccc(Cl)c1Cl)=C(C)CC(C(O)C(C)(C)C)n1cncn1 (centres unmarked) [I.A14a]
infection (extent of rust fungus development on the leaves, visual) (Phakopsora pachyrhizi [2]): 0%
